This is an account of results in patent US20260137676A1 (priority 2022, published 2026).

Structures are written as SMILES. Like-named read-outs stand apart in the source and are kept apart here.

Data set [1] has as its system SD rats. Description: Anesthetic effect (minimum effective anesthetic dose, LORR) after single tail vein injection in rats. It is filed as in vivo. How it is done: The dose at which the LORR first occur was determined as the minimum effective anesthetic dose. The minimum effective anesthetic dose is further classified as: A≤5 mg/kg; 5 mg/kg<B≤10 mg/kg; 10 mg/kg<C≤20 mg/kg; D>20 mg/kg in this invention.
The Up and down method was used to determine the ED50 of the compound causing the LORR. […] After observing five consecutive consistent directional changes in LORR occurrence and recovery, the ED50 was calculated using the Dixon-Mood formula. After determining the ED50, the onset time, duration of anesthesia, and emergence time of anesthesia were determined at an injection dose of 2ED50.
In the above experiments, in addition to recording the dose at which the LORR occurred, the onset time and emergence time of anesthesia, the duration of the LORR, and the duration of sedative effects could also be recorded. Meanwhile, circulatory effects experiments can be added to observe the effects of the compound on circulation and respiration in rats.

Data set [2] is described as follows: Solubility determination of salt forms of the compounds (10 mg, ultrapure water added incrementally). It is filed as physicochemical. The following applies: 10 mg of the salt form, 25° C.±2° C., class = water volume used. As for the experimental part: A weighed amount of 10 mg of the compound's salt form was placed in a vessel at 25° C.±2° C. Ultrapure water was added incrementally. The mixture was vigorously shaken for 30 seconds every 5 minutes and observed for 30 minutes. When no undissolved particles or droplets remained in the test system, the water solubility of the salt form was recorded according to the following criteria: • A: Water volume used is less than 0.1 mL; • B: Water volume used is greater than or equal to 0.1 mL and less than 1.0 mL; • C: Water volume used is greater than or equal to 1.0 mL and less than 5.0 mL.

For data set [3], the system named is SD rats. Particulars: tail vein, ratio of minimum lethal dose to minimum effective anesthetic dose.
Description: SD rats were used, with a single intravenous injection via the tail vein (administration rate of 0.02 ml/s and administration volume of 0.5-1.0 ml per 100 g body weight) in the experiment. The initial dose of the test compound started at 4ED50, and the actual administration dose was calculated based on the body weight measured before the test for each animal. The increase or decrease in subsequent doses was determined based on the results of the experimental animals (whether death occurred). The dose at which death first occurred was determined as the minimum lethal dose. […] The approximate therapeutic index is further classified as: A when the index is ≥5; B when the index is <5 but ≥3; and C when the index is <3.
The conditions of data set [4]: well-known to those skilled in the art; cited from earlier work.
Data set [5] is classed as physicochemical. As for the experimental part: Compound A6S (1 eq) was dissolved in Et2O (2 mL) at room temperature, and the corresponding acid (2 eq) was dissolved in Et2O (NO.1-NO.4) or MeOH (NO.5-NO.10). The above acid solution was slowly added to the reaction system containing Compound A6S using a syringe. NO.1-NO.3 was mixed and stirred at room temperature for 1 hour, and NO.5-NO.10 was mixed and stirred at room temperature for 16 hours. The mixture was filtered under suction to get the solid, then the solid was washed with Et2O, and dried to obtain the corresponding salt form of Compound A6S. Then, the solubility of each salt form was tested in ultrapure water.

For data set [6] the following is noted: intravenous injection; compared to propofol; cited from earlier work.
[7] abbreviates: vehicle DMSO: A3 31.8%, A14 66.7%, A17 79.2%, A21S 66.7%, A23 60%, A24 82.8%, A25S 70%.
[8] abbreviates: vehicle DMSO: A3 31.8%, A14 66.7%, A17 79.2%, A21S 66.7%, A23 60%, A24 82.8%.
Where [9] appears, read: vehicle Pure water, sulfate salts.

`COC(=O)[C@H](C)[N+]1(C)CCN(c2cc(C(C)C)c(O)c([C@H](C)C3CC3)c2)CC1` [Compound A25S]: in the data set on SD rats [1] (setting [7]), the “Minimal effective anesthetic dose” value was “D (D>20 mg/kg)”.
With `CC(C)c1cc(N2CCN(CC(=O)OC3COC3)CC2)cc([C@H](C)C2CC2)c1O` [Compound A8], the Solubility result in data set [2] is “B (B: Water volume used is greater than or equal to 0.1 mL and less than 1.0 mL)”.
`COC(=O)C(C1CC1)N1CCN(c2cc(C(C)C)c(O)c([C@H](C)C3CC3)c2)CC1` (stereo partly shown) [Compound A24]: the Solubility result in data set [2] is “C (C: Water volume used is greater than or equal to 1.0 mL and less than 5.0 mL)”. Further, in the data set on SD rats [1] (setting [8]), the Onset time was in the range of 0.17 to 0.18 min, the “Righting Reflex Duration” value was 5.53 to 9.67 min and the “Sedation Duration” value was in the range of 19.33 to 38.80 min. In addition, the “Minimal effective anesthetic dose” value with SD rats [1] (setting [7]) is given as “B (5 mg/kg<B≤10 mg/kg)”.
As for `CC[C@@H](C(=O)OC)N1CCN(c2cc(C(C)C)c(O)c([C@H](C)C3CC3)c2)CC1` [Compound A22S], in data set [2], the Solubility entry is reported as “A (A: Water volume used is less than 0.1 mL)”.
For the compound `CCOC(=O)C(C1CC1)N1CCN(c2cc(C(C)C)c(O)c([C@H](C)C3CC3)c2)CC1` (stereo partly shown) [Compound A26], the Solubility entry in data set [2] was “A (A: Water volume used is less than 0.1 mL)”. Further, in the data set on SD rats [1] (setting [9]), the “Minimal effective anesthetic dose” value is listed as “A (A≤5 mg/kg)”, the Onset time lay within 0.42 to 0.43 min, the “Righting Reflex Duration” value lay within 7.03 to 10.48 min and the “Sedation Duration” value is 14.75 to 21.28 min.
For `COC(=O)CN1CC2CCC(C1)N2c1cc(C(C)C)c(O)c([C@H](C)C2CC2)c1` [Compound A12], the Solubility entry in data set [2] is given as “A (A: Water volume used is less than 0.1 mL)”. In the data set with SD rats [1] (setting [9]), the “Minimal effective anesthetic dose” value is recorded as “C (10 mg/kg<C≤20 mg/kg)”, the Onset time lay within 0.50 to 0.77 min, the “Righting Reflex Duration” value lay in the range of 1.22 to 7.40 min and the “Sedation Duration” value lay within 9.90 to 34.25 min. Also, the Approximate therapeutic index result in the data set with SD rats [3] (vehicle Pure water) was “A (A when the index is ≥5)”.
In the case of `COC(=O)CC(=O)N1CCN(c2cc(C(C)C)c(O)c([C@H](C)C3CC3)c2)CC1` [Compound A3], the Solubility result in data set [2] is “C (C: Water volume used is greater than or equal to 1.0 mL and less than 5.0 mL)”. Besides, in the data set with SD rats [1] (setting [8]), the Onset time lay within 0.37 to 0.52 min, the “Righting Reflex Duration” value lay within 1.02 to 2.08 min and the “Sedation Duration” value fell in the range of 6.65 to 8.50 min. Further, in the data set with SD rats [1] (setting [7]), the “Minimal effective anesthetic dose” value was “C (10 mg/kg<C≤20 mg/kg)”. The Approximate therapeutic index entry with SD rats [3] (vehicle DMSO: A3 31.8%, A17 79.2%) is given as “B (B when the index is <5 but ≥3)”.
`COC(=O)CN1CCN(c2cc(C(C)C)c(O)c([C@H](C)C3CC3)c2)CC12CC2` [Compound A11]: in the data set with SD rats [1] (setting [9]), the “Minimal effective anesthetic dose” value is given as “C (10 mg/kg<C≤20 mg/kg)”, the Onset time is 0.12 to 0.27 min, the “Righting Reflex Duration” value was in the range of 0.68 to 3.12 min and the “Sedation Duration” value lay in the range of 12.05 to 14.53 min.
For the compound `CC(C)c1cccc(C(C)C)c1O` [Propofol, reference compound], the Approximate therapeutic index result with SD rats [3] (vehicle Lipid emulsion) is given as “B (B when the index is <5 but ≥3)”. For the same compound, the water solubility entry in data set [4] is given as “insoluble in water”.
In the case of `CC(C)c1cc(N2CCN([C@@H](C)C(=O)OC(C)(C)C)CC2)cc([C@H](C)C2CC2)c1O` [Compound A19S], in the data set on SD rats [1] (setting [9]), the “Minimal effective anesthetic dose” value was “B (5 mg/kg<B≤10 mg/kg)”, the Onset time fell in the range of 0.70 to 0.98 min, the “Righting Reflex Duration” value lay within 2.21 to 5.57 min and the “Sedation Duration” value was 14.55 to 21.30 min.
Turning to `CC(C)c1cc(N2CCN([C@@H](C)C(=O)OC(C)(C)C)CC2)cc(C(C)C)c1O` [Compound A21S], in the data set on SD rats [1] (setting [8]), the Onset time lay within 0.25 to 0.42 min, the “Righting Reflex Duration” value is 12.02 to 22.80 min and the “Sedation Duration” value was in the range of 28.72 to 56.33 min. For the same compound, the “Minimal effective anesthetic dose” value in the data set on SD rats [1] (setting [7]) is recorded as “B (5 mg/kg<B≤10 mg/kg)”.
For `CC(C)c1cc(N2CCN(CC(=O)OC(C)(C)C)CC2)cc([C@H](C)C2CC2)c1O` [Compound A13], the Solubility entry in data set [2] is on record as “A (A: Water volume used is less than 0.1 mL)”.
On to `COC(=O)[C@H](C)N1CCN(c2cc(C(C)C)c(O)c([C@H](C)C3CC3)c2)CC1` [Compound A6S], for which the “Salt formation (Yes/No)” value in data set [5] (A6S with Benzenesulfonic acid (NO.6)), in data set [5] (A6S with Hydrochloric acid (NO.1)), in data set [5] (A6S with Maleic acid (NO.8)), in data set [5] (A6S with Methanesulfonic acid (NO.3)), in data set [5] (A6S with Oxalic acid dihydrate (NO.7)) and in data set [5] (A6S with Phosphoric acid (NO.4)) was “Yes” each time. Besides, the “Salt formation (Yes/No)” value in data set [5] (A6S with Sulfuric acid (NO.2)) and in data set [5] (A6S with p-Toluenesulfonic acid hydrate (NO.5)) was “Yes” each time. The “Minimal effective anesthetic dose” value in the data set on SD rats [1] (setting [9]) is reported as “B (5 mg/kg<B≤10 mg/kg)”. Moreover, the Onset time with SD rats [1] (setting [9]) lay in the range of 0.47 to 0.73 min. For the same compound, the “Righting Reflex Duration” value in the data set with SD rats [1] (setting [9]) lay within 1.08 to 5.67 min. For the same compound, the “Sedation Duration” value in the data set with SD rats [1] (setting [9]) fell in the range of 7.93 to 15.12 min.
`CC(C)c1cc(N2CCN(CC(=O)OC(C)(C)C)CC2)cc([C@H](C)C2CC2)c1OCC(=O)OC(C)(C)C` [Compound A14]: in the data set on SD rats [1] (setting [8]), the Onset time lay in the range of 0.18 to 1.63 min, the “Righting Reflex Duration” value is 1.95 to 11.67 min and the “Sedation Duration” value is on record as 19.40-28.45- min. The “Minimal effective anesthetic dose” value in the data set with SD rats [1] (setting [7]) is given as “C (10 mg/kg<C≤20 mg/kg)”.
On to `CC(C)c1cc(N2CCN(CCO)CC2)cc([C@H](C)C2CC2)c1O` [Compound A7], for which, in data set [2], the Solubility entry was “B (B: Water volume used is greater than or equal to 0.1 mL and less than 1.0 mL)”.
As for `CC(C)c1cc(N2CCN(CC(=O)O)CC2)cc([C@H](C)C2CC2)c1O` [Compound A15], the Solubility result in data set [2] is reported as “A (A: Water volume used is less than 0.1 mL)”. Further, in the data set with SD rats [1] (setting [9]), the “Minimal effective anesthetic dose” value was “D (D>20 mg/kg)”.
For `CC(C)c1cccc(C(C)C)c1OCOP(=O)(O)O` [fospropofol disodium, Fospropofol disodium], in data set [6], the Onset time result is on record as “up to 2.9 minutes”.
Consider `CC(C)c1cc(N2CCN(CC(=O)OC(C)(C)C)C3(CC3)C2)cc([C@H](C)C2CC2)c1O` [Compound A18], for which, in the data set with SD rats [1] (setting [9]), the “Minimal effective anesthetic dose” value is “B (5 mg/kg<B≤10 mg/kg)”, the Onset time was in the range of 0.23 to 0.98 min, the “Righting Reflex Duration” value was in the range of 3.02 to 19.25 min and the “Sedation Duration” value was in the range of 16.47 to 35.57 min.
Taken in the same sequence, the figures for `COC(=O)[C@H](C)N1CCN(c2cc(C(C)C)c(O)c(C(C)C)c2)CC1` [Compound A20S] were “B (5 mg/kg<B≤10 mg/kg)”, 0.18 to 0.43 min, 2.18 to 7.48 min and 15.75 to 23.72 min.
Turning to `CC(C)c1cccc([C@H](C)C2CC2)c1O` [ciprofol], the water solubility entry in data set [4] is reported as “insoluble in water”.
As for `CC(C)c1cc(N2CCN(CC(=O)OC(C)(C)C)CC2)cc(C(C)C)c1O` [Compound A17], in the data set with SD rats [1] (setting [8]), the Onset time fell in the range of 0.15 to 0.63 min, the “Righting Reflex Duration” value lay within 3.67 to 9.38 min and the “Sedation Duration” value lay in the range of 24.42 to 35.32 min. For the same compound, the “Minimal effective anesthetic dose” value with SD rats [1] (setting [7]) is recorded as “A (A≤5 mg/kg)”.
As to `COC(=O)C(C(C)C)N1CCN(c2cc(C(C)C)c(O)c([C@H](C)C3CC3)c2)CC1` (stereo partly shown) [Compound A23], the Solubility result in data set [2] was “C (C: Water volume used is greater than or equal to 1.0 mL and less than 5.0 mL)”. In addition, in the data set on SD rats [1] (setting [8]), the Onset time was 0.20 to 0.22 min, the “Righting Reflex Duration” value was in the range of 4.93 to 15.08 min and the “Sedation Duration” value lay in the range of 30.48 to 39.13 min. Moreover, the “Minimal effective anesthetic dose” value in the data set with SD rats [1] (setting [7]) is given as “B (5 mg/kg<B≤10 mg/kg)”.
In the case of `COC(=O)[C@@H](C)N1CCN(c2cc(C(C)C)c(O)c([C@H](C)C3CC3)c2)CC1` [Compound A6R], in the data set with SD rats [1] (setting [9]), the “Minimal effective anesthetic dose” value is recorded as “A (A≤5 mg/kg)”, the Onset time fell in the range of 0.15 to 0.70 min, the “Righting Reflex Duration” value lay in the range of 1.72 to 3.82 min and the “Sedation Duration” value was in the range of 7.02 to 14.77 min.
